Test results: patent US9701693B2, “Selective glycosidase inhibitors and uses thereof” (Alectos Therapeutics Inc., priority 2011, dated 2017)

How the values were obtained:
[1] = system: O-GlcNAcase in rat PC-12 cells; test: Cell-based ELISA for cellular O-GlcNAcase inhibition (O-GlcNAcylated protein, RL-2 antibody); conditions: 24 h treatment, O-GlcNAcylated protein detected with RL-2 antibody
Description: Assay for Determination of Cellular Activity for Compounds that Inhibit O-GlcNAcase Activity
Inhibition of O-GlcNAcase, which removes O-GlcNAc from cellular proteins, results in an increase in the level of O-GlcNAcylated protein in cells. An increase in O-GlcNAcylated protein can be measured by an antibody, such as RL-2, that binds to O-GlcNAcylated protein. The amount of O-GlcNAcylated protein:RL2 antibody interaction can be measured by enzyme linked immunosorbant assay (ELISA) procedures.
A variety of tissue culture cell lines, expressing endogenous levels of O-GlcNAcase, can be utilized; examples include rat PC-12, and human U-87, or SK-N-SH cells. […] If desired, the total protein concentration of samples was determined using 20 μL of the sample using the BCA method.
The ELISA portion of the assay was performed in a black Maxisorp 96-well plate that was coated overnight at 4° C. with 100 μL/well of the cell lysate (1:10 dilution of the lysate with PBS containing protease inhibitors, phosphatase inhibitors, and PMSF). […] The detection reaction was incubated for 15 minutes at room temperature and then read with excitation at 530 nm and emission at 590 nm
The amount of O-GlcNAcylated protein, as detected by the ELISA assay, was plotted for each concentration of test compound using standard curve fitting algorithms for sigmoidal dose response curves. […]

human O-GlcNAcase = human O-GlcNAcase (Homo sapiens (Human), UniProt O60502); test: Fluorescence-based assay for determination of KI values for inhibition of O-GlcNAcase activity; format: biochemical; conditions: purified human O-GlcNAcase 0.7 nM, 2 mM 4-Methylumbelliferyl N-acetyl-β-D-glucosaminide, pH 7.0, Cheng-Prusoff; read-out: Fluorescence-based hOGA Ki
Experimental: Assay for Determination of KIValues for Inhibition of O-GlcNAcase Activity Experimental procedure for kinetic analyses: Enzymatic reactions were carried out in a reaction containing 50 mM NaH2PO4, 100 mM NaCl and 0.1% BSA (pH 7.0) using 2 mM 4-Methylumbelliferyl N-acetyl-β-D-glucosaminide dihydrate (Sigma M2133) dissolved in ddH2O, as a substrate. The amount of purified human O-GlcNAcase enzyme used in the reaction was 0.7 nM. Test compound of varying concentrations was added to the enzyme prior to initiation of the reaction. The reaction was performed at room temperature in a 96-well plate and was initiated with the addition of substrate. […] The slope of product production was determined for each concentration of compound tested and plotted, using standard curve fitting algorithms for sigmoidal dose response curves. The values for a four parameter logistic curve fit of the data were determined.

Chain of human O-GlcNAcase (O60502 whole entry): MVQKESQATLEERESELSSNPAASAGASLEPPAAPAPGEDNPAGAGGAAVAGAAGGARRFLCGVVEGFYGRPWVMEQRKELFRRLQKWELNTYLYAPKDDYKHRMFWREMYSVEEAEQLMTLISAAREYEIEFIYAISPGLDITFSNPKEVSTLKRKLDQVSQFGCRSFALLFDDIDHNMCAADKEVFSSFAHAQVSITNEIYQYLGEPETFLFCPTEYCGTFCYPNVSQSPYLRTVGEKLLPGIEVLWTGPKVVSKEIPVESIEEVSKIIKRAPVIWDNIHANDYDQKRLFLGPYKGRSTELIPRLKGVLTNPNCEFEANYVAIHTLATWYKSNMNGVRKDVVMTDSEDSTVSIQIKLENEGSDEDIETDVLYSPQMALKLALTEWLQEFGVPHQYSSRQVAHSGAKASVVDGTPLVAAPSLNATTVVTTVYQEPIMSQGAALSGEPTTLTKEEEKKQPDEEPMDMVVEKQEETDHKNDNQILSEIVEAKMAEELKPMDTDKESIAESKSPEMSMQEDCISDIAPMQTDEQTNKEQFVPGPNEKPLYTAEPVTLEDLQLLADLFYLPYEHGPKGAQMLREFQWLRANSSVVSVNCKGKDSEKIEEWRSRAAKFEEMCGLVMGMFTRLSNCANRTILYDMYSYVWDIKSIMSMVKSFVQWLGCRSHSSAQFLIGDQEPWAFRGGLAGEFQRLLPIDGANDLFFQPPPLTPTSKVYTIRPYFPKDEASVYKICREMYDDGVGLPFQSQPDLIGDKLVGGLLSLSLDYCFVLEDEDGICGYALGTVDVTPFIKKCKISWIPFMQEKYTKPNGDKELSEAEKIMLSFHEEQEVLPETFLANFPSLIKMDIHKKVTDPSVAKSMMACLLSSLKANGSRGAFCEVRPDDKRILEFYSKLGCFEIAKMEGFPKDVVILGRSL

Structure (SMILES) | EC50 [1] [nM] | Ki (human O-GlcNAcase) [nM]
CNC1=N[C@@H]2[C@H](O)[C@H](O)[C@@H](CO)O[C@@H]2S1 [Example 4, (3aR,5R,6S,7S,7aR)-5-(hydroxymethyl)-2-(methylamino)-5,6,7,7a-tetrahydro-3aH-pyrano[3,2-d]thiazole-6,7-diol] | 109 | 
CN(C)C1=N[C@@H]2[C@@H](O)[C@@H](O)[C@@H](CO)O[C@@H]2S1 [Example 2, (3aR,5R,6R,7R,7aR)-2-(dimethylamino)-5-(hydroxymethyl)-5,6,7,7a-tetrahydro-3aH-pyrano[3,2-d]thiazole-6,7-diol] |  | 28.6
